We go through 88 compounds from a melting point compilation (Tetko et al.).

Structures are written as SMILES.

Broadly, the melting point is the temperature, or range, at which the solid turns liquid.

Compound `O=C(O)c1cccc(S(=O)(=O)N2CCCc3ccccc32)c1` registered a melting point of 98 to 100 °C. In turn, `NNC(=O)CCc1ccc(S(=O)(=O)N2CCOCC2)cc1` yielded a melting point of 128 to 130 °C. `CC(=O)NCc1ccc(C(=O)N2CCCC2C(=O)O)cc1` (stereo not drawn) registered a melting point of 196 to 198 °C. Under `CC(=O)c1cccc(OC(C)C(=O)O)c1` (stereo not drawn) stands 93 to 95 °C; under `Cc1nnc2c(N)cc(Cl)nn12`, 227 to 229 °C; under `O=C1NC(=O)C(Cc2ccccc2)(c2ccccc2)N1` (stereo not drawn), 209 to 211 °C.

`COC(=O)c1cccc(S(=O)(=O)N2CCCCC2)c1` returned a melting point of 83 to 85 °C.

`Cn1cnc([N+](=O)[O-])c1CCl` yielded a melting point of 127 to 129 °C. Under `O=C(O)C1CCCCN1c1ncccn1` (stereo not drawn) stands 156 to 158 °C; under `O=C(CCl)NCc1ccccc1OC(F)(F)F`, 66 to 68 °C; under `O=C(O)CCc1ccc2c(c1)OCCO2`, 64 to 66 °C. Turning to `O=C(O)c1cc(C(=O)O)cc(S(=O)(=O)Cl)c1`, the melting point was in the range of 217 to 219 °C. Under `Nc1cnn(CC(=O)O)c1` stands 206 to 208 °C; under `NC(=O)C1CCN(c2ccccc2N)CC1`, 199 to 201 °C; under `Cc1sc(NC(=O)CCl)c(C#N)c1C`, 180 to 182 °C.

Compound `C#CCOc1ccccc1C=O` gave a melting point of 70 to 72 °C. Under `CCOC(=O)C1=C(C)NN=C(C)C1` stands 99 to 101 °C. Turning to `Clc1cc(SCc2ccccc2)ncn1`, the melting point fell in the range of 71 to 73 °C.

`NC(=NO)c1ccc(N2CCC(O)CC2)cc1` came in with a melting point of 169 to 171 °C. Under `COC(=O)c1ccc2c(c1)S(=O)(=O)N=C(C)N2` stands 275 to 277 °C; under `O=C(O)COc1ccc(C2SCCS2)cc1`, 137 to 139 °C; under `O=C1NC2(CCNCC2)NC12CCCCC2`, 276 to 278 °C. Under `N#Cc1ccc(-c2nnco2)cc1` stands 142 to 144 °C; under `O=[N+]([O-])c1ccc(-c2ncon2)cc1`, 166 to 168 °C; under `Nc1ccc(Cl)nc1C(=O)O`, 219 to 221 °C.

As to `Brc1ccc(Cc2nnn[nH]2)cc1`, the melting point lay in the range of 172 to 174 °C. For the compound `COC(=O)c1ccccc1-c1ccc(C=O)o1`, the melting point fell in the range of 68 to 72 °C. Consider `N#Cc1ccccc1CN1CCOC1=O`, for which the melting point lay within 91 to 93 °C. On to `C=CCN(c1ccccc1)S(=O)(=O)c1cccc(C(=O)O)c1`, for which the melting point fell in the range of 103 to 105 °C. In the case of `Nc1cc(Cl)cc(C(=O)O)c1F`, the melting point was 196 to 198 °C. `OCc1nc2cc(Br)ccc2[nH]1` showed a melting point of 179 to 181 °C. `NC(=O)Cn1cc([N+](=O)[O-])cn1` gave a melting point of 167 to 169 °C. In turn, `COc1ccc(Br)cc1C(=O)CBr` showed a melting point of 92 to 94 °C. As for `COC1CCN(C(=O)Nc2cccc(C(C)=O)c2)CC1`, the melting point lay in the range of 104 to 106 °C. Take `COC(=O)C[C@H](NC(=O)OCC1c2ccccc2-c2ccccc21)C(=O)O`: the melting point was 115 to 117 °C. Take `CC1(c2ccc(Br)cc2)CC(=O)NC1=O` (stereo not drawn): the melting point lay within 144 to 146 °C.

`NC(=S)NCC(F)(F)F` gave a melting point of 154 to 156 °C. The figure for `ClCc1nnc(-c2c(Cl)cccc2Cl)o1` is 46 to 48 °C. As to `NCC1CC(O)CN1Cc1ccccc1` (stereo not drawn), the melting point was in the range of 54 to 56 °C.

With `CC(C)(C)Nc1nnc(S)s1`, the melting point is 164 to 166 °C.

Turning to `COC(=O)CCCCCNC(=O)c1ccsc1`, the melting point was 77 to 79 °C. The figure for `CCCOc1cn(-c2ccccc2)nc1C(=O)O` is 119 to 121 °C; for `CCNc1ccc(S(=O)(=O)N2CCOCC2)cc1N` it is 188 to 190 °C; for `CCOC(=O)c1cc(C)cc(Br)c1N` it is 44 to 46 °C. The compound `CCOc1ccc(NS(=O)(=O)c2ccc(N)cc2)cc1` displayed a melting point of 145 to 147 °C.

Consider `O=C(O)CCCS(=O)c1ccc(Br)cc1` (stereo not drawn), for which the melting point lay within 121 to 123 °C.

With `CC1CCC(C(C)C)C(NC(=O)c2ccnc(F)c2)C1` (stereo not drawn), the melting point fell in the range of 79 to 81 °C. `O=C(Nc1ccc(O)cc1)c1ccc(Cl)cc1` came in with a melting point of 246 to 248 °C. The compound `Nc1cc(C(=O)O)c(F)cc1F` showed a melting point of 169 to 171 °C. `CN(C)S(=O)(=O)c1cn(C)cn1`: the melting point fell in the range of 119 to 121 °C. On to `Cc1ccc(S(N)(=O)=O)cc1C(N)=O`, for which the melting point lay within 192 to 194 °C. In the case of `c1ccc(CN2CCOC(c3nn[nH]n3)C2)cc1` (stereo not drawn), the melting point lay within 178 to 180 °C. `CCN(CC)S(=O)(=O)c1ccc(CC#N)nc1` gave a melting point of 72 to 74 °C. Consider `O=C(O)c1ccc(O)c(-c2ccccc2)c1`, for which the melting point was 142 to 144 °C. The compound `O=C(O)CCC=Cc1ccccc1` had a melting point of 86 to 88 °C. In the case of `NC(=O)C(O)C1CCOC1` (stereo not drawn), the melting point lay in the range of 84 to 86 °C.

`Cc1cccc(N2CCN(c3ccc(C#N)cn3)CC2)c1` displayed a melting point of 121 to 123 °C. Consider `O=C(O)CSc1nccn1-c1ccc(Br)cc1`, for which the melting point lay in the range of 203 to 205 °C. Take `CC(CC(=O)O)NC(=O)OCc1ccccc1` (stereo not drawn): the melting point fell in the range of 129 to 131 °C.

Regarding `O=[N+]([O-])c1ncn(CCO)n1`, the melting point lay in the range of 76 to 78 °C. On to `O=C1CCCN1c1ccc(O)cc1`, for which the melting point was 159 to 161 °C.

In the case of `NC(=O)NCC(=O)O`, the melting point lay in the range of 174 to 176 °C. Under `N#Cc1cc2c(nc1Cl)CCC2` stands 126 to 128 °C; under `O=C(O)c1cc2cc(Br)cc(Br)c2o1`, 279 to 281 °C; under `c1n[nH]c2cc3c(cc12)OCO3`, 199 to 201 °C. In turn, `CC1(C2CC2)NC(=O)N(CC(=O)O)C1=O` (stereo not drawn) had a melting point of 170 to 172 °C. `Nc1cc2c(=O)[nH]cnc2cc1F`: the melting point is 319 to 321 °C. For `COc1ccc(Cl)c(NC(=O)NN)c1`, the melting point was 159 to 161 °C. `Nc1ncc(Cc2cccc(Cl)c2Cl)s1` showed a melting point of 140 to 142 °C. With `O=C(O)c1ccc(N2C(=O)CCC2=O)cc1`, the melting point was in the range of 210 to 212 °C. On to `Cc1ccc(N(C)C(C)C)c(C(=O)O)c1`, for which the melting point is 69 to 71 °C. As to `COc1cc(F)c([N+](=O)[O-])cc1OC`, the melting point was 139 to 141 °C. Regarding `O=C(CCl)Nc1ccc([N+](=O)[O-])cc1Br`, the melting point lay in the range of 165 to 167 °C. Compound `CCN(CC)S(=O)(=O)c1ccc(N)cc1` displayed a melting point of 99 to 101 °C. `CC(C)(C)c1cc(N)n(-c2cccc(Cl)c2)n1` showed a melting point of 99 to 101 °C. The figure for `Cc1n[nH]cc1C=O` is 104 to 106 °C; for `O=S(=O)(c1cccc(CCl)c1)N1CCOCC1` it is 92 to 94 °C; for `N#Cc1c(OCCO)n[nH]c1N` it is 163 to 165 °C. `Cc1nnc(CN)s1` returned a melting point of 76 to 78 °C. The compound `COc1ccc2[nH]c3c(c2c1)CCCC3` showed a melting point of 59 to 61 °C. In the case of `CSc1nc(C2CC2)cc(C(=O)O)c1C#N`, the melting point lay within 181 to 183 °C.

Regarding `Nc1ccc(C2CC2)nn1`, the melting point is 135 to 137 °C. On to `O=C(NCCO)c1cccnc1`, for which the melting point fell in the range of 74 to 76 °C. `O=C(O)c1cc2cc(Cl)cc(Br)c2o1` had a melting point of 265 to 267 °C. The figure for `CCOC(=O)CNC(=O)NCC(=O)OCC` is 146 to 148 °C. The figure for `CNc1nc(C)cc(C)c1C#N` is 147 to 149 °C; for `O=C(CCl)NC(=O)NCC(F)(F)F` it is 154 to 156 °C. Under `Cc1nc(C)c(CCl)s1` stands 62 to 64 °C.
